Legend:
Hep3B = test: MTT assay, Hep 3B cells; assay type: cell-based; settings: Homo sapiens
Protocol: (§1) MTT (3-(4,5-Dimethylthiazol-2-yl)-2,5-diphenyltetrazolium bromide) assays.^21,22 HL-60, HCT-116, Hep 3B, H460, Detroit 551 and HT29/FuR cells were treated with tested compounds for the indicated periods. After treatment, cells were washed once with PBS and incubated with MTT (Sigma, St. Louis, Mo., USA) for 2 h. The formazan precipitate was dissolved in 150 μL of DMSO, and the absorbance was measured with an ELISA reader at 570 nm.
(§2) HL-60, Hep 3B, H460, MES-SA, MES-SAID x5 and Detroit 551 cells were treated with vehicle or test compounds for 48 h. The cell growth rate was determined by MTT (3-(4,5-dimethyl-thiazol-2-yl)-2,5-diphenyltetrazoliun bromide) reduction assay.
as §1, with “assays.” for “assays.^21,22”, “HCT-116, A549,” for “HCT-116,”, “KB, Kb-VIN” for “H460, Detroit 551”, “DU145” for “HT29/FuR”
as §1, with “assays.” for “assays.^21,22”, “HL-60,” for “HL-60, HCT-116,”, “H460, A498, Colo205 and” for “H460,”, “551” for “551 and HT29/FuR”

HL-60 = test: MTT assay, HL-60 cells; assay type: cell-based; settings: Homo sapiens
Protocol: as §1, §2
as §1, with “assays.” for “assays.^21,22”, “HCT-116, A549,” for “HCT-116,”, “KB, Kb-VIN” for “H460, Detroit 551”, “DU145” for “HT29/FuR”
as §1, with “assays.” for “assays.^21,22”, “HL-60,” for “HL-60, HCT-116,”, “H460, A498, Colo205 and” for “H460,”, “551” for “551 and HT29/FuR”

H460 = test: MTT assay, H460 cells; assay type: cell-based; settings: Homo sapiens, NCI-H460
Protocol: as §1, §2
as §1, with “assays.” for “assays.^21,22”, “HL-60,” for “HL-60, HCT-116,”, “H460, A498, Colo205 and” for “H460,”, “551” for “551 and HT29/FuR”

Detroit 551 = test: MTT assay, Detroit 551 normal human cells; assay type: cell-based; settings: for IC50: Detroit 551
Protocol: as §1, §2
as §1, with “assays.” for “assays.^21,22”, “HL-60,” for “HL-60, HCT-116,”, “H460, A498, Colo205 and” for “H460,”, “551” for “551 and HT29/FuR”

HCT116 = test: MTT assay, HCT-116 cells; assay type: cell-based; settings: Homo sapiens, Table 1, 48 h
Protocol: as §1
as §1, with “assays.” for “assays.^21,22”, “HCT-116, A549,” for “HCT-116,”, “KB, Kb-VIN” for “H460, Detroit 551”, “DU145” for “HT29/FuR”

HT29/5FuR = test: MTT assay, HT29/5FuR cells; assay type: cell-based; settings: Homo sapiens, HT-29, Table 1, 48 h
Protocol: as §1

[1] = test system: HL-60, HCT-116, Hep3B, H-460; test: Cytotoxicity screen (MTT) against human cancer cell lines, results in words; assay type: cell-based; settings: comparison within sub-series or with CHM-2133
Protocol: as §1, §2

[2] = Homo sapiens, Table 3, B-2 series, 48 hrs
[3] = Homo sapiens, Table 4, B-3 series, 48 hrs
[4] = Table 1, 48 h, MTT, normal human cell

Q: With `COc1cc2c(cc1OCc1ccccc1)N=C(c1ccccc1F)CC2=O` [Compound 22, 7-Benzyloxy-2-(2-fluorophenyl)-6-methoxyquinolin-4-one] as the compound, how does the melting point read?
A: The melting point was 132 to 134 °C.

Q: With `CN(C)c1ccc2c(c1)C(=O)CC(c1ccc(OCc3ccccc3)cc1)=N2` [Compound 121, 2-(4-Benzyloxyphenyl)-6-dimethylaminoquinolin-4-one] as the compound, how does the melting point read?
A: The melting point was 283 to 285 °C.

Q: With `O=C1CC(c2ccc(O)cc2)=Nc2ccc(N3CCOCC3)cc21` [Compound 140, 2-(4-Hydroxyphenyl)-6-morpholinoquinolin-4-one] as the compound, how does the IC50 (Hep3B; Table 2, B-1 series, 48 hrs) read?
A: Its IC50 is over 10 µM.

Q: And the melting point?
A: The melting point was 340 to 342 °C.

Q: What about the IC50 (HL-60; Table 2, B-1 series, 48 hrs) of the same compound?
A: Its IC50 is 1.64 µM.

Q: And the IC50 (H460; Table 2, B-1 series, 48 hrs)?
A: The IC50 was over 10 µM.

Q: For `O=C1CC(c2cccc(OCc3ccccc3)c2)=Nc2ccc(N3CCCC3)cc21` [Compound 117, 2-(3-Benzyloxyphenyl)-6-pyrrolidinoquinolin-4-one], which melting point is on record?
A: The melting point was 320 to 322 °C.

Q: Which IC50 (Hep3B; Table 3, B-2 series, 48 hrs) does the source give for `O=C1CC(c2ccc(O)cc2)=Nc2ccc(N3CCCC3)cc21` [Compound 141, 2-(4-Hydroxyphenyl)-6-pyrrolidinoquinolin-4-one] here?
A: Its IC50 is 1.1 µM.

Q: What about the melting point of the same compound?
A: Its melting point is 304 to 306 °C.

Q: What about the IC50 (HL-60; Table 3, B-2 series, 48 hrs) of the same compound?
A: The IC50 was 0.04 µM.

Q: And the IC50 (H460; Table 3, B-2 series, 48 hrs)?
A: Its IC50 is 1.56 µM.

Q: What about the IC50 (Detroit 551; [2]) of the same compound?
A: The IC50 was over 25 µM.

Q: With `COc1cc(C2=Nc3ccc(N4CCOCC4)cc3C(=O)C2)ccc1O` [Compound 143, 2-(4-Hydroxy-3-methoxyphenyl)-6-morpholinoquinolin-4-one] as the compound, how does the IC50 (Hep3B; Table 2, B-1 series, 48 hrs) read?
A: Its IC50 is 50 µM.

Q: What about the melting point of the same compound?
A: The melting point was 297 to 299 °C.

Q: And the IC50 (HL-60; Table 2, B-1 series, 48 hrs)?
A: The IC50 was 3.9 µM.

Q: What about the IC50 (H460; Table 2, B-1 series, 48 hrs) of the same compound?
A: Its IC50 is 50 µM.

Q: What about the IC50 (Detroit 551; Homo sapiens, Table 2, B-1 series, 48 hrs) of the same compound?
A: Its IC50 is 50 µM.

Q: Which melting point does the source give for `O=C1CC(c2ccccc2OCc2ccccc2)=Nc2ccc(N3CCCC3)cc21` [Compound 114, 2-(2-Benzyloxyphenyl)-6-pyrrolidinoquinolin-4-one] here?
A: The melting point was 293 to 295 °C.

Q: With `CN(C)c1ccc2c(c1)C(=O)CC(c1ccccc1O)=N2` [Compound 136, 2-(2-Hydroxyphenyl)-6-dimethylaminoquinolin-4-one] as the compound, how does the IC50 (Hep3B; Table 4, B-3 series, 48 hrs) read?
A: Its IC50 is 7.1 µM.

Q: And the melting point?
A: The melting point was 296 to 298 °C.

Q: What about the IC50 (HL-60; Table 4, B-3 series, 48 hrs) of the same compound?
A: Its IC50 is 3.02 µM.

Q: What about the IC50 (H460; Table 4, B-3 series, 48 hrs) of the same compound?
A: Its IC50 is 5.4 µM.

Q: What about the IC50 (Detroit 551; [3]) of the same compound?
A: Its IC50 is 100 µM.

Q: Which IC50 (Hep3B; Table 4, B-3 series, 48 hrs) does the source give for `CN(C)c1ccc2c(c1)C(=O)CC(c1ccc(O)cc1)=N2` [Compound 142, 2-(4-Hydroxyphenyl)-6-dimethylaminoquinolin-4-one] here?
A: Its IC50 is 9 µM.

Q: What about the melting point of the same compound?
A: Its melting point is 321 to 323 °C.

Q: And the IC50 (HL-60; Table 4, B-3 series, 48 hrs)?
A: The IC50 was 0.64 µM.

Q: What about the IC50 (H460; Table 4, B-3 series, 48 hrs) of the same compound?
A: Its IC50 is 0.56 µM.

Q: And the IC50 (Detroit 551; [3])?
A: The IC50 was 75 µM.

Q: Which melting point does the source give for `COc1cc2c(cc1OCc1ccccc1)N=C(c1cccc(F)c1)CC2=O` [Compound 23, 7-Benzyloxy-2-(3-fluorophenyl)-6-methoxyquinolin-4-one] here?
A: Its melting point is 154 to 155 °C.

Q: For `COc1ccc(C2=Nc3ccc(N4CCCC4)cc3C(=O)C2)cc1` [Compound 133, 2-(4-Methoxyphenyl)-6-pyrrolidinoquinolin-4-one], which IC50 (Hep3B; Table 3, B-2 series, 48 hrs) is on record?
A: Its IC50 is over 1 µM.

Q: And the melting point?
A: The melting point was 312 to 313 °C.

Q: And the IC50 (HL-60; Table 3, B-2 series, 48 hrs)?
A: Its IC50 is over 1 µM.

Q: What about the IC50 (H460; Table 3, B-2 series, 48 hrs) of the same compound?
A: The IC50 was over 1 µM.

Q: And the IC50 (Detroit 551; [2])?
A: The IC50 was over 1 µM.

Q: For `O=C1CC(c2ccc(OCc3ccccc3)cc2)=Nc2ccc(N3CCCC3)cc21` [Compound 120, 2-(4-Benzyloxyphenyl)-6-pyrrolidinoquinolin-4-one], which melting point is on record?
A: Its melting point is 330 to 332 °C.

Q: What does the source list for `COc1ccc2c(c1O)C(=O)CC(c1ccccc1F)=N2` [Compound 37, 2-(2-Fluorophenyl)-5-hydroxy-6-methoxyquinolin-4-one]?
A: IC50 (Hep3B; Table 1, 48 h, MTT): 0.05 µM; IC50 (HL-60; Table 1, 48 h, MTT): 0.067 µM; IC50 (HCT116): 0.05 µM; IC50 (H460; Table 1, 48 h, MTT): 0.11 µM; IC50 (HT29/5FuR): 0.2 µM; IC50 (Detroit 551; [4]): 10 µM; toxicity toward Detroit 551 normal human cell (in words) (Detroit 551; Table 1 compounds): lower toxicity; cytotoxicity (in words) [1]: greater cytotoxicity

Q: Which IC50 (Hep3B; Table 1, 48 h, MTT) does the source give for `COc1ccc2c(c1OC)C(=O)CC(c1ccccc1F)=N2` [Compound 16, 2-(2-Fluorophenyl)-5,6-dimethoxyquinolin-4-one] here?
A: Its IC50 is over 20 µM.

Q: What about the IC50 (HL-60; Table 1, 48 h, MTT) of the same compound?
A: The IC50 was 3.7 µM.

Q: And the IC50 (HCT116)?
A: The IC50 was over 20 µM.

Q: And the IC50 (H460; Table 1, 48 h, MTT)?
A: The IC50 was over 20 µM.

Q: And the IC50 (HT29/5FuR)?
A: The IC50 was 2.03 µM.

Q: What about the IC50 (Detroit 551; [4]) of the same compound?
A: Its IC50 is over 20 µM.

Q: Which IC50 (Hep3B; Table 1, 48 h, MTT) does the source give for `O=C1CC(c2ccc(F)cc2)=Nc2ccc(O)c(O)c21` [Compound 42, 2-(4-Fluorophenyl)-5,6-dihydroxyquinolin-4-one] here?
A: The IC50 was 100 µM.

Q: What about the IC50 (HL-60; Table 1, 48 h, MTT) of the same compound?
A: Its IC50 is 38.6 µM.

Q: What about the IC50 (HCT116) of the same compound?
A: Its IC50 is over 100 µM.

Q: What about the IC50 (H460; Table 1, 48 h, MTT) of the same compound?
A: Its IC50 is 100 µM.

Q: What about the IC50 (Detroit 551; [4]) of the same compound?
A: Its IC50 is over 100 µM.

Q: What about the “cytotoxicity (in words)” value [1] of the same compound?
A: The value was “weaker”.

Source: patent US8524740B2, “Synthesis and anticancer activity of aryl and heteroaryl-quinolin derivatives” (Tairx, Inc., priority 2010, dated 2013)
